Experimental data as given in ChEMBL document CHEMBL1126936, “Synthesis and antitumor activity of 10-propargyl-10-deazaaminopterin” (J Med Chem, 1993).
Each block holds one compound with its values, some of them ahead of it.

Tests used:
Dihydrofolate reductase = molecular target: T1, Dihydrofolate reductase (Mus musculus, UniProt P00375); experiment: Inhibition of Dihydrofolate reductase (DHFR) enzyme derived from L1210 cells expressed as Ki (pM); type: cell-based
T1 sequence (P00375 whole entry): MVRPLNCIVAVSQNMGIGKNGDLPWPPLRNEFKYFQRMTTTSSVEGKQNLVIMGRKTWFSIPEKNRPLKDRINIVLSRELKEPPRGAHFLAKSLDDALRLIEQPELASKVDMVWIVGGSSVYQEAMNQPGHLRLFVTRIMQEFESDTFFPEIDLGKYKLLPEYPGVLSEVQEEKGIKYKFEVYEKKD

L1210 [1] = experiment: (§1) Inhibition of growth in L1210 murine leukemia cells in culture expressed as IC50 (nM); type: functional, cell-based; settings: Mus musculus
L1210 [2] = experiment: (§2) Transport influx which is determined by competitive binding for the transport protein; expressed as Ki (uM); type: functional, cell-based, Mus musculus
Mus musculus [3] = organism: Mus musculus; experiment: as §1; type: functional, cell-based
Mus musculus [4] = organism: Mus musculus; experiment: as §2; type: functional, organism-based
Mus musculus [5] = experiment: Average E0771 solid murine mammary tumor volume in BDF1 female mice (n=5) at 36 mg/kg at 10 day post treatment point; Expressed as % T/C; type: functional
Mus musculus [6] = experiment: Average E0771 solid murine mammary tumor volume in BDF1 female mice (n=5) at 36 mg/kg at 14 day post treatment point; Expressed as % T/C; type: functional
Mus musculus [7] = experiment: Average E0771 solid murine mammary tumor volume in BDF1 female mice (n=5) at 36 mg/kg at 21 day post treatment point; Expressed as % T/C; type: functional
Mus musculus [8] = experiment: Average E0771 solid murine mammary tumor volume in BDF1 female mice (n=5) at 24 mg/kg at 10 day post treatment point; Expressed as % T/C; type: functional
Mus musculus [9] = experiment: Average E0771 solid murine mammary tumor volume in BDF1 female mice (n=5) at 24 mg/kg at 14 day post treatment point; Expressed as % T/C; type: functional
Mus musculus [10] = experiment: Average E0771 solid murine mammary tumor volume in BDF1 female mice (n=5) at 24 mg/kg at 21 day post treatment point; Expressed as % T/C; type: functional
Mus musculus [11] = experiment: Average E0771 solid murine mammary tumor volume in BDF1 female mice (n=5) at 24 mg/kg at 10 day post treatment point; type: functional
Mus musculus [12] = experiment: Average E0771 solid murine mammary tumor volume in BDF1 female mice (n=5) at 24 mg/kg at 14 day post treatment point; type: functional
Mus musculus [13] = experiment: Average E0771 solid murine mammary tumor volume in BDF1 female mice (n=5) at 24 mg/kg at 21 day post treatment point; type: functional
Mus musculus [14] = experiment: Average E0771 solid murine mammary tumor volume in BDF1 female mice (n=5) at 36 mg/kg at 10 day post treatment point; type: functional
Mus musculus [15] = experiment: Average E0771 solid murine mammary tumor volume in BDF1 female mice (n=3) at 36 mg/kg at 14 day post treatment point
Mus musculus [16] = experiment: Average E0771 solid murine mammary tumor volume in BDF1 female mice (n=3) at 36 mg/kg at 21 day post treatment point
Mus musculus [17] = experiment: Average E0771 solid murine mammary tumor volume in BDF1 female mice (n=5) at 9 mg/kg at 10 day post treatment point; Expressed as % T/C; type: functional
Mus musculus [18] = experiment: Average E0771 solid murine mammary tumor volume in BDF1 female mice (n=5) at 6 mg/kg at 10 day post treatment point; Expressed as % T/C; type: functional
Mus musculus [19] = experiment: Average E0771 solid murine mammary tumor volume in BDF1 female mice (n=5) at 6 mg/kg at 14 day post treatment point; Expressed as % T/C; type: functional
Mus musculus [20] = experiment: Average E0771 solid murine mammary tumor volume in BDF1 female mice (n=5) at 6 mg/kg at 21 day post treatment point; Expressed as % T/C; type: functional
Mus musculus [21] = experiment: Average E0771 solid murine mammary tumor volume in BDF1 female mice (n=5) at 9 mg/kg at 14 day post treatment point; Expressed as % T/C; type: functional
Mus musculus [22] = experiment: Average E0771 solid murine mammary tumor volume in BDF1 female mice (n=5) at 9 mg/kg at 21 day post treatment point; Expressed as % T/C; type: functional
Mus musculus [23] = experiment: Average E0771 solid murine mammary tumor volume in BDF1 female mice (n=5) at 3 mg/kg at 10 day post treatment point; Expressed as % T/C; type: functional
Mus musculus [24] = experiment: Average E0771 solid murine mammary tumor volume in BDF1 female mice (n=5) at 3 mg/kg at 14 day post treatment point; Expressed as % T/C; type: functional
Mus musculus [25] = experiment: Average E0771 solid murine mammary tumor volume in BDF1 female mice (n=5) at 3 mg/kg at 21 day post treatment point; Expressed as % T/C; type: functional
Mus musculus [26] = experiment: Average E0771 solid murine mammary tumor volume in BDF1 female mice (n=5) at 3 mg/kg at 10 day post treatment point; type: functional
Mus musculus [27] = experiment: Average E0771 solid murine mammary tumor volume in BDF1 female mice (n=5) at 3 mg/kg at 14 day post treatment point; type: functional
Mus musculus [28] = experiment: Average E0771 solid murine mammary tumor volume in BDF1 female mice (n=5) at 3 mg/kg at 21 day post treatment point; type: functional
Mus musculus [29] = experiment: Average E0771 solid murine mammary tumor volume in BDF1 female mice (n=5) at 6 mg/kg at 10 day post treatment point; type: functional
Mus musculus [30] = experiment: Average E0771 solid murine mammary tumor volume in BDF1 female mice (n=5) at 6 mg/kg at 14 day post treatment point; type: functional
Mus musculus [31] = experiment: Average E0771 solid murine mammary tumor volume in BDF1 female mice (n=5) at 6 mg/kg at 21 day post treatment point; type: functional
Mus musculus [32] = experiment: Average E0771 solid murine mammary tumor volume in BDF1 female mice (n=5) at 9 mg/kg at 10 day post treatment point; type: functional
Mus musculus [33] = experiment: Average E0771 solid murine mammary tumor volume in BDF1 female mice (n=5) at 9 mg/kg at 14 day post treatment point; type: functional
Mus musculus [34] = experiment: Average E0771 solid murine mammary tumor volume in BDF1 female mice (n=5) at 9 mg/kg at 21 day post treatment point; type: functional

Ki (Dihydrofolate reductase): 0.0092 nM
IC50 (L1210 [1]): 2.03 nM
Ki (L1210 [2]): 1100 nM
Compound: CCCC(Cc1cnc2nc(N)nc(N)c2n1)c1ccc(C(=O)NC(CCC(=O)O)C(=O)O)cc1 (configuration not stated)

Ki (Dihydrofolate reductase): 0.0182 nM
Ki (Mus musculus [4]): 450 nM
Compound: C#CCC(Cc1cnc2nc(N)nc(N)c2n1)c1ccc(C(=O)NC(CCC(=O)O)C(=O)O)cc1 (configuration not stated)
IC50 (Mus musculus [3]): 2 nM
T/C (Mus musculus [5]): 31%
T/C (Mus musculus [6]): 1%
T/C (Mus musculus [7]): 1%
T/C (Mus musculus [8]): 47%
T/C (Mus musculus [9]): 2%
T/C (Mus musculus [10]): 10%
Average tumor volume (Mus musculus [11]): 62 mm**3
Average tumor volume (Mus musculus [12]): 19 mm**3
Average tumor volume (Mus musculus [13]): 204 mm**3
Average tumor volume (Mus musculus [14]): 48 mm**3
Average tumor volume (Mus musculus [15]): 6 mm**3
Average tumor volume (Mus musculus [16]): 21 mm**3

Compound: Nc1nc(N)c2nc(CCc3ccc(C(=O)N[C@@H](CCC(=O)O)C(=O)O)cc3)cnc2n1
Ki (Dihydrofolate reductase): 0.0036 nM
IC50 (Mus musculus [3]): 1.8 nM
Ki (Mus musculus [4]): 900 nM

IC50 (L1210 [1]): 9.5 nM
Ki (Mus musculus [4]): 4200 nM
Compound: CN(Cc1cnc2nc(N)nc(N)c2n1)c1ccc(C(=O)N[C@@H](CCC(=O)O)C(=O)O)cc1 [METHOTREXATE]
T/C (Mus musculus [17]): 3%
T/C (Mus musculus [18]): 26%
T/C (Mus musculus [19]): 2%
T/C (Mus musculus [20]): 18%
T/C (Mus musculus [21]): 2%
T/C (Mus musculus [22]): 15%
T/C (Mus musculus [23]): 86%
T/C (Mus musculus [24]): 15%
T/C (Mus musculus [25]): 61%
Average tumor volume (Mus musculus [26]): 113 mm**3
Average tumor volume (Mus musculus [27]): 187 mm**3
Average tumor volume (Mus musculus [28]): 1260 mm**3
Average tumor volume (Mus musculus [29]): 34 mm**3
Average tumor volume (Mus musculus [30]): 19 mm**3
Average tumor volume (Mus musculus [31]): 382 mm**3
Average tumor volume (Mus musculus [32]): 4 mm**3
Average tumor volume (Mus musculus [33]): 19 mm**3
Average tumor volume (Mus musculus [34]): 310 mm**3

Ki (Dihydrofolate reductase): 0.0041 nM
Ki (Mus musculus [4]): 950 nM
Compound: CC(Cc1cnc2nc(N)nc(N)c2n1)c1ccc(C(=O)NC(CCC(=O)O)C(=O)O)cc1 (configuration not stated)
IC50 (Mus musculus [3]): 1.34 nM

Ki (Dihydrofolate reductase): > 1 nM
IC50 (L1210 [1]): 251 nM
Ki (L1210 [2]): 1000 nM
Compound: CCCCCC(Cc1cnc2nc(N)nc(N)c2n1)c1ccc(C(=O)NC(CCC(=O)O)C(=O)O)cc1 (configuration not stated)
